The values that follow come from article PMC7376718, “Flavonoids isolated from the South African weed Chromolaena odorata (Asteraceae) have pharmacological activity against uropathogens” (BMC Complementary Medicine and Therapies, 2020).

The test system of data set [1] is E. coli. The data set is described as follows: Metabolic activity inhibition (INT). It counts as cell-based, Escherichia coli. The procedure: The ability of the isolated compounds to inhibit the bacterial metabolic activity was tested against E. coli and S. aureus following the method used by Ramage and Lopez-Ribot with slight modification. The organisms were inoculated in a 96-well microplate following the same biofilm assay procedure described above. The final concentration of each compound in the wells was 0.016 mg/mL, 0.031 mg/mL, 0.063 mg/mL, 0.125 mg/mL and 1 mg/mL respectively. After 24 h of incubation with samples, the plates were washed three times with sterile distilled water and 50 μL of 1 mg/mL INT was added to each well and further incubated in the dark for 2 h. After incubation, absorbance was read at 490 nm using a microplate reader and the percentages of reduction of bacterial metabolic activity in the presence of different concentrations of compounds were calculated using the formula:
percentage inhibiton=mean of culture control−mean of sample/mean of culture controlx100

For data set [2], the system named is E. coli (B1962/17) isolate from equine urine, E. coli (3). The data set is described as follows: MIC, serial microdilution with INT. It counts as cell-based. Particulars: Escherichia coli, read-out: Minimum inhibitory concentration. The text has this: (§1) The cultures used were Escherichia coli (American Type Culture Collection, ATCC 25922) labelled as 1, E. coli isolates (B1989/17 and B1962/17) labelled as 2 and 3 from equine urine, collected from the Department of Veterinary Tropical Diseases, Faculty of Veterinary Science, University of Pretoria, South Africa, Klebsiella pneumoniae isolate from commercial chicken eggs, Enterococcus faecalis (ATCC 29212), Pseudomonas aeruginosa (ATCC 27853), Staphylococcus aureus (ATCC 29213), Candida albicans from a Gouldian finch, Aspergillus fumigatus from a chicken and Cryptococcus neoformans from a cheetah. These microbial strains were maintained on MHA or SDA for bacteria and fungi respectively, while the isolates were maintained on blood agar.
(§2) Ten mg/mL of each fraction and 1 mg/mL of isolated compounds were prepared in 10% DMSO and tested against S. aureus, E. coli, K. pneumoniae, E. faecalis, P. aeruginosa, C. albicans, C. neoformans and A. fumigatus. Cultures were prepared by inoculating each microbial strain from prepared agar plates into sterilized MHB for bacterial and SDB for fungi in sterile McCartney bottles respectively. The inoculums were placed in an orbital shaker incubator. Bacterial strains were incubated at 37 °C for 18 h. Each bacterial culture was diluted in fresh MHB and the absorbance was measured at a wavelength of 560 nm using a microplate reader (Epoch Biotek). The readings were compared to a McFarland standard No. 1 correlating to approximately 3 × 10^8 cfu/mL). For fungi strains, cultures were incubated at 30 °C for 24 h (C. albicans), 72 h (C. neoformans) and 120 h (A. fumigatus) respectively. The resultant cells and spores were washed with sterile normal saline and absorbance was measured at a wavelength of 560 nm and turbidity was adjusted to a McFarland standard 1.This was further diluted in a 1:10 ratio in SDB to a turbidity of 5 × 10^5 cfu/mL. These diluted cultures (bacterial and fungi) were used for the screening following the serial microdilution method of Eloff.
A general note: Dilution methods test growth across graded concentrations, often in twofold steps.

Data set [3] concerns Staphylococcus aureus (ATCC 29213). The data set is described as follows: MIC, serial microdilution with INT. It counts as cell-based. Particulars: ATCC29213, S. aureus, read-out: Minimum inhibitory concentration.
Text: as §1, §2

Data set [4] deals with Aspergillus fumigatus from a chicken. As to the kind of experiment: MIC, serial microdilution with INT. It counts as cell-based. Particulars: Aspergillus fumigatus, read-out: Minimum inhibitory concentration.
Text: as §1, §2

For data set [5], the system named is Cryptococcus neoformans from a cheetah. As to the kind of experiment: MIC, serial microdilution with INT. The format is cell-based. Particulars: C. neoformans, read-out: Minimum inhibitory concentration.
Text: as §1, §2

The subject of data set [6] is E. coli (B1989/17) isolate from equine urine, E. coli (2). The data set is described as follows: MIC, serial microdilution with INT. It counts as cell-based. Particulars: Escherichia coli, read-out: Minimum inhibitory concentration.
Text: as §1, §2

For data set [7], the system named is Klebsiella pneumoniae isolate from commercial chicken eggs. The data set is described as follows: MIC, serial microdilution with INT. It counts as cell-based. Particulars: Klebsiella pneumoniae, K. pneumoniae; read-out: Minimum inhibitory concentration.
Text: as §1, §2

Data set [8] concerns Escherichia coli (ATCC 25922), E. coli (1). The data set is described as follows: MIC, serial microdilution with INT. Particulars: Escherichia coli, ATCC25922, E. coli (1), read-out: Minimum inhibitory concentration. The format is cell-based.
Text: as §1, §2

A further data set deals with S. aureus. The data set is described as follows: Cell adhesion to BSA-coated polystyrene surface. It counts as cell-based, Staphylococcus aureus. Particulars: 1 mg/mL, polystyrene microplate. How it is done: Anti-adhesion activity of isolated compounds was determined using the method of Namasivayam and Vivek with slight modification. To a sterile 96-well flat-bottomed polystyrene microtititre plate, 150 μL of freshly prepared 1% lyophilized powdered globular protein BSA, dissolved in water was added to all wells except for the wells allocated for media only. The plates were incubated for 30 min at 30 °C. Following incubation the wells were washed three times with PBS. To the wells, 50 μL of bacterial cultures equivalent to 1 × 10^6 cfu/mL read at 590 nm, prepared from overnight cultures were added. […] The seeded microtitre plates were incubated for 24 h at 37 °C. Non-adhered cells were washed five times with PBS at room temperature. Adhered cells were stained by the addition of 50 μL of 0.1% crystal violet and further incubation for a further 30 min at room temperature. Afterwards, wells were washed with sterile distilled water to remove excess stain followed by the addition of 10 μL of absolute ethanol to fix the adhered cells. Finally, 50 μL of 0.2% Triton X was added to the wells to lyse the cells and the absorbance was read at 570 nm using a microplate reader. Percentage adherence inhibition was calculated using the formula above.

A short description of another data set: in vitro. The procedure: Different concentrations of the compounds ranging from 0.003 to 0.2 mg/mL were tested for cytotoxicity against three cell lines; Vero monkey kidney, C3A and Caco2. Vero cells were grown and maintained in MEM, supplemented with 0.1% gentamicin and 5% foetal calf serum, while Caco2 and C3A cells were grown and maintained in DMEM supplemented with 10% foetal calf serum, 1% non-essential amino acids and 1% penicillin-streptomycin. All cells were incubated in a 5% CO2 incubator at 37 °C. Doxorubicin chloride was used as positive control while 10% DMSO used in dissolving the test samples was used as the negative control. The 3-(4,5-dimethylthiazol)-2,5-diphenyl tetrazolium bromide (MTT) assay described by Mosmann with modification by McGaw et al. was used to determine the cytotoxicity of the test samples. The lethal concentration (LC50) value was calculated as the concentration of tested sample resulting in a 50% reduction of absorbance compared to untreated cells. Selectivity index (SI) values were calculated against the MIC using the formula: […]

The test system of data set [9] is S. aureus, E. coli (1), E. coli (2), E. coli (3), K. pneumoniae. As to the kind of experiment: Mean MIC over the bacterial strains. It counts as cell-based. As to conditions: mean over the five bacterial strains of Table 3.
Text: as §1, §2

The test system of data set [10] is E. coli. Also noted: method as in earlier work. Particulars: ref [70] Teffo et al.; cited from earlier work.

Each structure is given as a SMILES string. Converted amounts (≈) assume the structure as drawn. Read-outs that look alike come from different tables or passages of the source.

As to `COc1ccc(C2CC(=O)c3c(OC)cc(OC)cc3O2)cc1` (racemic) [Compound 2, (±)-4′,5,7-trimethoxy flavanone], the “Metabolic activity inhibition (verdict in words)” value in the data set with E. coli [1] was “good”. The MIC in data set [2] is 31 µg/mL (≈ 98.6 µM); in [3], 31 µg/mL (≈ 98.6 µM); in data set [4] (48 h) it was 16 µg/mL (≈ 50.9 µM); in data set [4] (72 h), 125 µg/mL (≈ 398 µM); in data set [4] (120 h), > 2500 µg/mL; in data set [5] (48 h, 48 h) it was 16 µg/mL (≈ 50.9 µM). Besides, the MIC was 125 µg/mL (≈ 398 µM) in data set [5] (72 h, 72 h); 31 µg/mL (≈ 98.6 µM) in [6]; 125 µg/mL (≈ 398 µM) in data set [7]; 31 µg/mL (≈ 98.6 µM) in data set [8]; 50 ± 40 µg/mL (≈ 159 µM) in data set [9]. For the same molecule, the “Adherence inhibition (verdict in words)” value with S. aureus is on record as “weak”. In “in vitro”, the CC50 was 200 µg/mL (≈ 636 µM). Besides, the “Mean MIC” value in [9] was found to be 0.05 mg/mL.
For the molecule `COc1ccc(-c2oc3cc(OC)cc(O)c3c(=O)c2OC)cc1` [Compound 3, 5-hydroxy-3,7,4′-trimethoxyflavone], the “Metabolic activity inhibition (verdict in words)” value with E. coli [1] was “good”. In addition, the MIC in [2] was 250 µg/mL (≈ 761 µM); in [3], 16 µg/mL (≈ 48.7 µM); in data set [4] (48 h), 31 µg/mL (≈ 94.4 µM); in data set [4] (72 h) it was 250 µg/mL (≈ 761 µM); in data set [4] (120 h), > 2500 µg/mL; in data set [5] (48 h, 48 h), > 250 µg/mL. The MIC in [5] (72 h, 72 h) was > 250 µg/mL; in data set [6], 250 µg/mL (≈ 761 µM); in [7], 125 µg/mL (≈ 381 µM); in data set [8], 63 µg/mL (≈ 192 µM); in data set [9], 140 µg/mL (≈ 426 µM). Besides, the “Adherence inhibition (verdict in words)” value in the data set with S. aureus is “weak”. Further, the “MIC / antibacterial activity” value in the data set with E. coli [10] is recorded as “no activity was recorded”.
